{"source": "paper PMC9851200", "about": "“Multiparameter phenotypic screening for endogenous TFEB and TFE3 translocation identifies novel chemical series modulating lysosome function” (Autophagy, 2022)", "origin": "cited, not measured here", "set-up_in_all_cases": "method as in original PKIS2 published data", "key": {"[1]": {"biological_target": "T1, kinases (KINOMEscan panel) (Homo sapiens, UniProt Q8IW41)", "T1 sequence (Q8IW41 1-473)": "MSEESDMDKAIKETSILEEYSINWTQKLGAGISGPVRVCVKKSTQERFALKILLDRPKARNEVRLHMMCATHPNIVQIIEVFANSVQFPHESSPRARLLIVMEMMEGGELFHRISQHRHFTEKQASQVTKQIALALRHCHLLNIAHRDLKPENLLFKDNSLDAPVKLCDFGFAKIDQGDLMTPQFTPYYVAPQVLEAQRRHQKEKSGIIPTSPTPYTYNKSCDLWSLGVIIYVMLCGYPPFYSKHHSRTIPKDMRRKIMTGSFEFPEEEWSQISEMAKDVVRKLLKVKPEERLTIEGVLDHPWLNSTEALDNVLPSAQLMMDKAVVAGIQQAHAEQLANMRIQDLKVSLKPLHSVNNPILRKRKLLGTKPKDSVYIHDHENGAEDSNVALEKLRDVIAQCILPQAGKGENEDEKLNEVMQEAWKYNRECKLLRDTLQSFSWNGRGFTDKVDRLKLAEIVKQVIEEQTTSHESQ", "conditions": "MAPKAPK5; Published KINOMEscan; ref original PKIS2 published data; cited from earlier work"}, "[2]": {"biological_target": "T2, kinases (KINOMEscan panel) (Homo sapiens, UniProt Q8WXR4)", "T2 sequence (Q8WXR4 1-1341)": "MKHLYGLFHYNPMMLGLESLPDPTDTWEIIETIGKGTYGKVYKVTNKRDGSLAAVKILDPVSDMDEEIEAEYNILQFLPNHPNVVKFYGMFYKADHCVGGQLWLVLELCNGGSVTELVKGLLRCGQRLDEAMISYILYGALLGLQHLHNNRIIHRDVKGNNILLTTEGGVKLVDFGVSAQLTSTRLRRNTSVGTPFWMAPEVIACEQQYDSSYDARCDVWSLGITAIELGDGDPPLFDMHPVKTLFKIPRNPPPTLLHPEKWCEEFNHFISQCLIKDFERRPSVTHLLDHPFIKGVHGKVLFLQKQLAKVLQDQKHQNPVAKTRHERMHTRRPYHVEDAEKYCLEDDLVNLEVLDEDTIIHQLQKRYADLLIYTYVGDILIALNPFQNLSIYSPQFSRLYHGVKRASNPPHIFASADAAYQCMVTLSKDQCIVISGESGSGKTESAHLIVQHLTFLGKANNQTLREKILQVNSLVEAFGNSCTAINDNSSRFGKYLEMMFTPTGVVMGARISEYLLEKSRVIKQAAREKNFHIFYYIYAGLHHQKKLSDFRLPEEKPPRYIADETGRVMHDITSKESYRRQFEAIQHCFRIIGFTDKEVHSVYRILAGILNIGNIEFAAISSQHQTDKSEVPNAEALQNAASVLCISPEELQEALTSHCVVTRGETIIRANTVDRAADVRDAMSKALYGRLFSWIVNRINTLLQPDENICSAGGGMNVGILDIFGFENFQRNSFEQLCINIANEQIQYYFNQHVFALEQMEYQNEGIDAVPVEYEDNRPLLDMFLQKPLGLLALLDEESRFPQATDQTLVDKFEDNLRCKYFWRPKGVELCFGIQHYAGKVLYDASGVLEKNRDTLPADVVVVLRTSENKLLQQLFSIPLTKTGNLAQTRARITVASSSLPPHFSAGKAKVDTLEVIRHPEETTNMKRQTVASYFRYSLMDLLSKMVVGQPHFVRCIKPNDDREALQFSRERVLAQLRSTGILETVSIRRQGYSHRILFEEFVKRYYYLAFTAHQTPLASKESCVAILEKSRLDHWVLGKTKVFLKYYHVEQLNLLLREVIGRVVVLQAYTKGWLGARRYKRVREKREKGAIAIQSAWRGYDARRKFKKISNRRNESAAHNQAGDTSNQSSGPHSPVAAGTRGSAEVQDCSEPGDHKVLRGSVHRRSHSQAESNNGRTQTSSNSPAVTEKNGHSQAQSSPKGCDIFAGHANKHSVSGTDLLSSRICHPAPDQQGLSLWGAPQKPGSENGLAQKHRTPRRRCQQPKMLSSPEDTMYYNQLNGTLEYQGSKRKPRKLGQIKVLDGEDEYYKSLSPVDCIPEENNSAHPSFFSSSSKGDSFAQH", "conditions": "MYO3B; Published KINOMEscan; ref original PKIS2 published data; cited from earlier work"}, "[3]": {"biological_target": "T3, kinases (KINOMEscan panel) (Homo sapiens, UniProt O00141)", "T3 sequence (O00141 1-431)": "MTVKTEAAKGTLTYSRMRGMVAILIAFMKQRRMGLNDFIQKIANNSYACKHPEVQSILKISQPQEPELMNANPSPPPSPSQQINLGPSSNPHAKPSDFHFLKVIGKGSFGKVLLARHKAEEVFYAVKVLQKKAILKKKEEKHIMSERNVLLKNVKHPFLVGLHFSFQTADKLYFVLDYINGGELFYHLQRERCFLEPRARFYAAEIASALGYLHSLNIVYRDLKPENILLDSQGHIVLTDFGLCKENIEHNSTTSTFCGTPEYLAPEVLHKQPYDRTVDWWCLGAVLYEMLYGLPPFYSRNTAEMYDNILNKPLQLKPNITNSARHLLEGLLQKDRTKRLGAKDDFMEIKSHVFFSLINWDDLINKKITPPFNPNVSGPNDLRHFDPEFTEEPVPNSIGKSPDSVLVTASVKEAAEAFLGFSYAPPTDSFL", "conditions": "kinase SGK1; Published KINOMEscan; ref original PKIS2 published data; cited from earlier work"}, "[4]": {"biological_target": "kinases (KINOMEscan panel) (Homo sapiens, UniProt Q06187)", "sequence (Q06187 whole entry)": "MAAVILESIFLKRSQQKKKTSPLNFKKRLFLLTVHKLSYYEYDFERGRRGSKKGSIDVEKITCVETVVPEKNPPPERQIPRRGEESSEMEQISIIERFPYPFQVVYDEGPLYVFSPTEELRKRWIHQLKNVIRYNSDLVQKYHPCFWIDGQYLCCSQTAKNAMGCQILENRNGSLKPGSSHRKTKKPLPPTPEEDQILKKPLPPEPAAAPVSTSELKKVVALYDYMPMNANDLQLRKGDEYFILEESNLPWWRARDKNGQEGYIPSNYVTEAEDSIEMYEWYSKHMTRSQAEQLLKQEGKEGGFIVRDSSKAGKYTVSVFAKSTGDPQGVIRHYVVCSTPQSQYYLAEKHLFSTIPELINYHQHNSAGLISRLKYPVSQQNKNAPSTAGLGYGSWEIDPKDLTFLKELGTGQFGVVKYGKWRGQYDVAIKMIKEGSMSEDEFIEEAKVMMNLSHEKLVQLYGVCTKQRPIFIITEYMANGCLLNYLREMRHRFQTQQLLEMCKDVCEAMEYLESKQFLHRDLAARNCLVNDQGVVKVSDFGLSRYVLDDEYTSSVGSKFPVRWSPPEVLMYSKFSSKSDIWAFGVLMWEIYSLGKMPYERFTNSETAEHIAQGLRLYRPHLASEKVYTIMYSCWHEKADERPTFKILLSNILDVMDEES", "conditions": "kinase BTK; Published KINOMEscan; ref original PKIS2 published data; cited from earlier work"}, "[5]": {"biological_target": "kinases (KINOMEscan panel) (Homo sapiens, UniProt Q9Y243)", "sequence (Q9Y243 whole entry)": "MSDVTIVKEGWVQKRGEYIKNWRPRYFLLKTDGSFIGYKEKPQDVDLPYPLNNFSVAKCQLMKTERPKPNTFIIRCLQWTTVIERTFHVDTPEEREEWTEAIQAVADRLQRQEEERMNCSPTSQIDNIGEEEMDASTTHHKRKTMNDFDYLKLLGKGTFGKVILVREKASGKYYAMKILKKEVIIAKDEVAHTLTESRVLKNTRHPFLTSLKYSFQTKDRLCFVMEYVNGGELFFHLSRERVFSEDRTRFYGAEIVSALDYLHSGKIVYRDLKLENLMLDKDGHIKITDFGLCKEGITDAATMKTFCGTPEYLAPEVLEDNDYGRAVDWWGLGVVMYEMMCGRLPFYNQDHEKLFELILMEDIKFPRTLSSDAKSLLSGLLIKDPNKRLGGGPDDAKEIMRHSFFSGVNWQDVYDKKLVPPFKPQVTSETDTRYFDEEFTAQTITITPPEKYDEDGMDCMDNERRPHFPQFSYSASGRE", "conditions": "kinase AKT3; Published KINOMEscan; ref original PKIS2 published data; cited from earlier work"}, "[6]": {"biological_target": "kinases (KINOMEscan panel) (Homo sapiens, UniProt Q7KZI7)", "sequence (Q7KZI7 whole entry)": "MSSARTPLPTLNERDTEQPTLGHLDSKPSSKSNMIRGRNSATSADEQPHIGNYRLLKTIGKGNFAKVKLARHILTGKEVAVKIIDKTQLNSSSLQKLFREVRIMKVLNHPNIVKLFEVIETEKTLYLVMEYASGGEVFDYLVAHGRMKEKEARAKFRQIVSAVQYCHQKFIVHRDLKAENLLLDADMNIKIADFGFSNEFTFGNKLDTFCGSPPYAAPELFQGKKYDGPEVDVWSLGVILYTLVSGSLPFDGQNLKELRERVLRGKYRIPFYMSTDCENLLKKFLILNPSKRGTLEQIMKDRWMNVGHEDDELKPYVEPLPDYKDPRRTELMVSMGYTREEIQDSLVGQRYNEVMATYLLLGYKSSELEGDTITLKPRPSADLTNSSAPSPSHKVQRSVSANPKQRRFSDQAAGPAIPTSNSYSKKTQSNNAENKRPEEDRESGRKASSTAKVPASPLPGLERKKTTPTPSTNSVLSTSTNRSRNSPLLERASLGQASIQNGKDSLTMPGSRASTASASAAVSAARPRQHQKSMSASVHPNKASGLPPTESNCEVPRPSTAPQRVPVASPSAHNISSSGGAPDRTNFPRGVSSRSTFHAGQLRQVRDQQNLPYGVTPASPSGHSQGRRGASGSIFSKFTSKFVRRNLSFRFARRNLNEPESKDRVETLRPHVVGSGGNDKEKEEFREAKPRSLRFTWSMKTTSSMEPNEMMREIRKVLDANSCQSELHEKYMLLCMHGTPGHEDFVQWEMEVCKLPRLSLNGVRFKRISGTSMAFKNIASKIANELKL", "conditions": "MARK2; Published KINOMEscan; ref original PKIS2 published data; cited from earlier work"}, "[7]": {"biological_target": "kinases (KINOMEscan panel) (Homo sapiens, UniProt Q00535)", "sequence (Q00535 whole entry)": "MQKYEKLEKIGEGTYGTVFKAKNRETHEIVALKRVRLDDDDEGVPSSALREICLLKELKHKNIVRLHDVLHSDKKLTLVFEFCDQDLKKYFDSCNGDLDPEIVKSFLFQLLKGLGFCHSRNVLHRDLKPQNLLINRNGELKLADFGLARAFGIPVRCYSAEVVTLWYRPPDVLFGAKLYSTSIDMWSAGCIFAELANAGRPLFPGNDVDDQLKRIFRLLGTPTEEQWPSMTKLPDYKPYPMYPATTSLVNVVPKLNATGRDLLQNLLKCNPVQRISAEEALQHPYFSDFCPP", "conditions": "Published KINOMEscan; ref original PKIS2 published data; cited from earlier work"}, "[8]": {"biological_target": "kinases (KINOMEscan panel) (Homo sapiens, UniProt P53671)", "sequence (P53671 whole entry)": "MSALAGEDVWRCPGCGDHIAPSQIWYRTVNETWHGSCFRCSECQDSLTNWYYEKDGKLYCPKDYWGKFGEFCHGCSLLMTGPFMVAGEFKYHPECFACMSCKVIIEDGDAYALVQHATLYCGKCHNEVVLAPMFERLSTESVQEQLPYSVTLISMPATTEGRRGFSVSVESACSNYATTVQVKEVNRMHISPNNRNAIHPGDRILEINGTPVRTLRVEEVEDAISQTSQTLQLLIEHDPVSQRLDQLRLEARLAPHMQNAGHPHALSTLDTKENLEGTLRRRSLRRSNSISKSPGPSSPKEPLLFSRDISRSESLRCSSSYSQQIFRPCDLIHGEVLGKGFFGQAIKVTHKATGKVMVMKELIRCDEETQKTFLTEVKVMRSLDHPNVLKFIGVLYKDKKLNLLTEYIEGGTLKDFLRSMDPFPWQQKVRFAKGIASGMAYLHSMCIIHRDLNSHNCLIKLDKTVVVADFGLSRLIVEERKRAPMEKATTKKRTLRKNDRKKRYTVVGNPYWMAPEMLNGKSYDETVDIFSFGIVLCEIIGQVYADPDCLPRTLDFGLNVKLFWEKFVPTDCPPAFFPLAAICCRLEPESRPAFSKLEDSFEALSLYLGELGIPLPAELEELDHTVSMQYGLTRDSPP", "conditions": "LIMK2; Published KINOMEscan; ref original PKIS2 published data; cited from earlier work"}}}
{"smiles": "Cc1cccc(-c2nc(Nc3ccncc3)c3ccccc3n2)n1", "note": "[NK215]", "values": [{"measurement": "KINOMEscan MAPKAPK5", "setting": "[1]", "value": 0}, {"measurement": "KINOMEscan MYO3B", "setting": "[2]", "value": 17}, {"measurement": "KINOMEscan SGK1", "setting": "[3]", "value": 0}, {"measurement": "KINOMEscan BTK", "setting": "[4]", "value": 0}, {"measurement": "KINOMEscan AKT3", "setting": "[5]", "value": 0}, {"measurement": "KINOMEscan MARK2", "setting": "[6]", "value": 0}, {"measurement": "KINOMEscan CDK5", "setting": "[7]", "value": 0}, {"measurement": "KINOMEscan LIMK2", "setting": "[8]", "value": 5}]}
